Source: patent US12441725B2, “ISO-citrate dehydrogenase (IDH) inhibitor” (ZHEJIANG METON PHARMACEUTICAL CO., LTD, priority 2019, dated 2025)

Assays:
[1] = molecular target: T1, IDH1 R132H (Homo sapiens, UniProt O75874, R132H); assay: Biochemical assay for IDH inhibition (NADPH fluorescence), mutant IDH1 R132H; conditions: 50 nM IDH1-R132H, 1 hour pre-incubation, in triplet
T1 construct: 6xHis
Method in brief: (§1)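 Mutant enzyme (25 nM R132C or 50 nM R132H) was preincubated 1 h at room temperature with compound in pH 7.5 Tris buffer containing 1.33 mM α-KG, and the reaction was then started with NADPH (80 μM solution). NADPH consumption was followed by fluorescence (Ex 340/Em 460 nm) for 15 min. IC50 was derived from background-corrected linear rates relative to vehicle, run in triplicate.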

[2] = molecular target: T2, IDH1 R132C (Homo sapiens, UniProt O75874, R132C); assay: Biochemical assay for IDH inhibition (NADPH fluorescence), mutant IDH1 R132C; conditions: 25 nM IDH1-R132C, 1 hour pre-incubation, in triplet
T2 construct: 6xHis
Method in brief: as §1

[3] = molecular target: T3, IDH (endogenous IDH1 R132C) in HT1080 cell (Homo sapiens, UniProt O75874, R132C); assay: Cell-based assay for IDH inhibition (decrease of D-2-HG) in HT1080 cells; conditions: human fibrosarcoma cell line HT1080, 16 hours treatment, D-2-HG by LC-MS, in triplet
T3 construct: which harbor endogenous heterozygous IDH1 R132C and R132H mutation respectively and accumulate D-2-HG
Method in brief: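 HT1080 cells with endogenous IDH1 R132C, grown in DMEM/10% FBS, treated with compound at several concentrations for 16 h. Metabolites extracted in cold 40% methanol/40% acetonitrile and D-2-HG measured by HILIC LC-MS/MS, normalized to glutamate. IC50 from D-2-HG relative to DMSO controls; run in triplicate.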

T3 sequence (O75874 2-414 R132C): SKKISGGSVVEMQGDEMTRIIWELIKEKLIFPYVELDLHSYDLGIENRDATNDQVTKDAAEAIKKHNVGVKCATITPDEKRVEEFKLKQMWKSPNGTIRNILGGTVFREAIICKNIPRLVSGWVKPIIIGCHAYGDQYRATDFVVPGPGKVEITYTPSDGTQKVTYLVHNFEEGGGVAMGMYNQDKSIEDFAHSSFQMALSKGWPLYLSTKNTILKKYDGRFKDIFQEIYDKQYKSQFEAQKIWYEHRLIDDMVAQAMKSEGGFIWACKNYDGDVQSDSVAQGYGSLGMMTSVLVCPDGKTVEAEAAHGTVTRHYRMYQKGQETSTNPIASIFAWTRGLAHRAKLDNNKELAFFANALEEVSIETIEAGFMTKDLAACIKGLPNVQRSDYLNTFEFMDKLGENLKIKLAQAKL
T1 sequence (O75874 whole entry R132H): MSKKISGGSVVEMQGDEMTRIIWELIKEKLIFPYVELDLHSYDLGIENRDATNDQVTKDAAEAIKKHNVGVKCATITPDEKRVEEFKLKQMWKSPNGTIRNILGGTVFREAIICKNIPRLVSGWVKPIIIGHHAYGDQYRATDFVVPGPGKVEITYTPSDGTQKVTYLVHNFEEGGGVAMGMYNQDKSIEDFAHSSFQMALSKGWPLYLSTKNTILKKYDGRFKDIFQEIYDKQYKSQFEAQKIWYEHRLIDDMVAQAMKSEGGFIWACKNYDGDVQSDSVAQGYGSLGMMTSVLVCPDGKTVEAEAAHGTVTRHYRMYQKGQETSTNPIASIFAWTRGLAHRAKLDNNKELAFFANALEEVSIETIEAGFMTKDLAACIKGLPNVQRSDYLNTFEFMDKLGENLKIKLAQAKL
T2 sequence (O75874 whole entry R132C): as the sequence (O75874 whole entry R132H) above, with H132C counted along it

Row | SMILES | IC50 [1] [nM] | IC50 [2] [nM] | IC50 [3] [nM]
1 | CCN1Cc2c(ccnc2N[C@@H](C)c2ccc(CN3CCC(F)(F)CC3)c(F)c2)C1=O [Compound 55, (S)-4-((1-(4-((4,4-difluoropiperidin-1-yl)methyl)-3-fluorophenyl)ethyl)amino)-2-ethyl-2,3-dihydro-1H-pyrrolo[3,4-c]pyridin-1-one] | > 1000 | > 1000 | > 1000
2 | CCN1Cc2c(ccnc2N[C@@H](C)c2ccc(C(=O)c3ccccc3)c(F)c2)C1=O [Compound 60, (S)-4-((1-(4-benzoyl-3-fluorophenyl)ethyl)amino)-2-ethyl-2,3-dihydro-1H-pyrrolo[3,4-c]pyridin-1-one] | > 1000 | > 1000 | > 1000
3 | CCN1Cc2c(ccnc2N[C@@H](C)c2ncc(Cc3ccc(F)c(C)c3)cn2)C1=O [Compound 54, (S)-2-ethyl-4-((1-(5-(4-fluoro-3-methylbenzyl)pyrimidin-2-yl)ethyl)amino)-2,3-dihydro-1H-pyrrolo[3,4-c]pyridin-1-one] | > 1000 | > 1000 | > 1000
4 | CCN1Cc2c(ccnc2N[C@@H](C)c2ccc(-c3ccnc(C(O)C4CC4)c3)c(F)c2)C1=O (stereo partly drawn) [Compound 85, 4-(((1S)-1-(4-(2-(cyclopropyl(hydroxy)methyl)pyridin-4-yl)-3-fluorophenyl)ethyl)amino)-2-ethyl-2,3-dihydro-1H-pyrrolo[3,4-c]pyridin-1-one] | > 1000 | > 1000 | > 1000
5 | Cc1ccc(Oc2ccc([C@H](C)Nc3nccc4c3CN(CC(F)F)C4=O)cc2F)cc1 [Compound 17, (S)-2-(2,2-difluoroethyl)-4-((1-(3-fluoro-4-(p-tolyloxy)phenyl)ethyl)amino)-2,3-dihydro-1H-pyrrolo[3,4-c]pyridin-1-one] | 100 to 500 | 100 to 500 | > 1000
6 | CCN1Cc2c(ccnc2N[C@@H](C)c2ccc(Oc3cccnc3)c(F)c2)C1=O [Compound 13, (S)-2-ethyl-4-((1-(3-fluoro-4-(pyridin-3-yloxy)phenyl)ethyl)amino)-2,3-dihydro-1H-pyrrolo[3,4-c]pyridin-1-one] | > 1000 | > 1000 | > 1000
7 | CCN1Cc2c(N[C@@H](C)c3ccc(OC4CCCC4)c(F)c3)ncc(F)c2C1=O [Compound 19, (S)-4-((1-(4-(cyclopentyloxy)-3-fluorophenyl)ethyl)amino)-2-ethyl-7-fluoro-2,3-dihydro-1H-pyrrolo[3,4-c]pyridin-1-one] | > 1000 | > 1000 | > 1000
8 | CCN1Cc2c(ccnc2N[C@@H](C)c2ccc(-n3ccc(C)n3)c(F)c2)C1=O [Compound 59, (S)-2-ethyl-4-((1-(3-fluoro-4-(3-methyl-1H-pyrazol-1-yl)phenyl)ethyl)amino)-2,3-dihydro-1H-pyrrolo[3,4-c]pyridin-1-one] | > 1000 | > 1000 | > 1000
9 | CCN1Cc2c(ccnc2N[C@@H](C)c2ccc(-c3ccc(C)cc3)c(F)c2)C1=O [Compound 73, (S)-2-ethyl-4-((1-(2-fluoro-4′-methyl-[1,1′-biphenyl]-4-yl)ethyl)amino)-2,3-dihydro-1H-pyrrolo[3,4-c]pyridin-1-one] | 100 to 500 | > 1000 | > 1000
10 | CCN1Cc2c(ccnc2N[C@@H](C)c2cc(F)c(-c3ccnc(C(C)(C)C#N)c3)cc2F)C1=O [Compound 154, (S)-2-(4-(4-(1-((2-ethyl-1-oxo-2,3-dihydro-1H-pyrrolo[3,4-c]pyridin-4-yl)amino)ethyl)-2,5-difluorophenyl)pyridin-2-yl)-2-methylpropanenitrile] | 100 to 500 | 500 to 1000 | 100 to 500

Second part, the molecule after the results:

Row | IC50 [1] [nM] | IC50 [2] [nM] | IC50 [3] [nM] | SMILES
11 | 100 to 500 | 100 to 500 | 500 to 1000 | CCN1Cc2c(ccnc2N[C@@H](C)c2ccc(Oc3ccnc(C(C)(C)C)c3)c(F)c2)C1=O [Compound 25, (S)-4-((1-(4-((2-(tert-butyl)pyridin-4-yl)oxy)-3-fluorophenyl)ethyl)amino)-2-ethyl-2,3-dihydro-1H-pyrrolo[3,4-c]pyridin-1-one]
12 | 100 to 500 | 100 to 500 | 500 to 1000 | CCN1Cc2c(ccnc2N[C@@H](C)c2cc(F)c(Oc3ccc(C)cc3)cc2F)C1=O [Compound 20, (S)-4-((1-(2,5-difluoro-4-(p-tolyloxy)phenyl)ethyl)amino)-2-ethyl-2,3-dihydro-1H-pyrrolo[3,4-c]pyridin-1-one]
13 | 100 to 500 | 500 to 1000 | > 1000 | CCN1Cc2c(ccnc2N[C@@H](C)c2ccc(Oc3ccc4c(c3)CCN4C)c(F)c2)C1=O [Compound 29, (S)-2-ethyl-4-((1-(3-fluoro-4-((1-methylindolin-5-yl)oxy)phenyl)ethyl)amino)-2,3-dihydro-1H-pyrrolo[3,4-c]pyridin-1-one]
14 | < 100 | 100 to 500 | 500 to 1000 | C[C@H](Nc1nccc2c1CN(C(CF)CF)C2=O)c1ccc(-c2ccnc(C(C)(C)C)c2)c(F)c1 [Compound 38, (S)-4-((1-(4-(2-(tert-butyl)pyridin-4-yl)-3-fluorophenyl)ethyl)amino)-2-(1,3-difluoropropan-2-yl)-2,3-dihydro-1H-pyrrolo[3,4-c]pyridin-1-one]
15 | < 100 | 100 to 500 | 100 to 500 | CCN1Cc2c(ccnc2N[C@@H](C)c2cc(F)c(-c3cc(C(F)(F)F)cc(OC)n3)cc2F)C1=O [Compound 142, (S)-4-((1-(2,5-difluoro-4-(6-methoxy-4-(trifluoromethyl)pyridin-2-yl)phenyl)ethyl)amino)-2-ethyl-2,3-dihydro-1H-pyrrolo[3,4-c]pyridin-1-one]
16 | < 100 | < 100 | 100 to 500 | CCN1Cc2c(ccnc2N[C@@H](C)c2cc(F)c(-c3cc(C(F)(F)F)ncc3OCOC)cc2F)C1=O [Compound 145, (S)-4-((1-(2,5-difluoro-4-(5-(methoxymethoxy)-2-(trifluoromethyl)pyridin-4-yl)phenyl)ethyl)amino)-2-ethyl-2,3-dihydro-1H-pyrrolo[3,4-c]pyridin-1-one]
17 | < 100 | < 100 | < 100 | CCN1Cc2c(ccnc2N[C@@H](C)c2cc(F)c(-c3cc(C(C)(C)F)c(C)cn3)cc2F)C1=O [Compound 127, (S)-4-((1-(2,5-difluoro-4-(4-(2-fluoropropan-2-yl)-5-methylpyridin-2-yl)phenyl)ethyl)amino)-2-ethyl-2,3-dihydro-1H-pyrrolo[3,4-c]pyridin-1-one]
18 | < 100 | 100 to 500 | 100 to 500 | CCN1Cc2c(ccnc2N[C@@H](C)c2cc(F)c(-c3cc(C(C)(C)F)ncn3)cc2F)C1=O [Compound 130, (S)-4-((1-(2,5-difluoro-4-(6-(2-fluoropropan-2-yl)pyrimidin-4-yl)phenyl)ethyl)amino)-2-ethyl-2,3-dihydro-1H-pyrrolo[3,4-c]pyridin-1-one]
19 | < 100 | 100 to 500 | 100 to 500 | CCN1Cc2c(ccnc2N[C@@H](C)c2ccc(-c3ccnc(C(C)(C)C)c3)c(F)c2F)C1=O [Compound 42, (S)-4-((1-(4-(2-(tert-butyl)pyridin-4-yl)-2,3-difluorophenyl)ethyl)amino)-2-ethyl-2,3-dihydro-1H-pyrrolo[3,4-c]pyridin-1-one]
20 | < 100 | < 100 | < 100 | CCN1Cc2c(ccnc2N[C@@H](C)c2cc(F)c(-c3cc(C(C)(C)C)ncc3F)cc2F)C1=O [Compound 104, (S)-4-((1-(4-(2-(tert-butyl)-5-fluoropyridin-4-yl)-2,5-difluorophenyl)ethyl)amino)-2-ethyl-2,3-dihydro-1H-pyrrolo[3,4-c]pyridin-1-one]
21 | < 100 | 100 to 500 | 100 to 500 | CCN1Cc2c(ccnc2N[C@@H](C)c2cc(F)c(-c3cc(NC(C)(C)C)cc(C)n3)cc2F)C1=O [Compound 128, (S)-4-((1-(4-(4-(tert-butylamino)-6-methylpyridin-2-yl)-2,5-difluorophenyl)ethyl)amino)-2-ethyl-2,3-dihydro-1H-pyrrolo[3,4-c]pyridin-1-one]
22 | < 100 | 100 to 500 | 100 to 500 | CCN1Cc2c(ccnc2N[C@@H](C)c2cc(F)c(-c3cc(C(F)(F)F)ccn3)cc2F)C1=O [Compound 115, (S)-4-((1-(2,5-difluoro-4-(4-(trifluoromethyl)pyridin-2-yl)phenyl)ethyl)amino)-2-ethyl-2,3-dihydro-1H-pyrrolo[3,4-c]pyridin-1-one]
23 | < 100 | < 100 | < 100 | CCN1Cc2c(ccnc2N[C@@H](C)c2cc(F)c(-c3cncc(C(C)(C)C)c3)cc2F)C1=O [Compound 109, (S)-4-((1-(4-(5-(tert-butyl)pyridin-3-yl)-2,5-difluorophenyl)ethyl)amino)-2-ethyl-2,3-dihydro-1H-pyrrolo[3,4-c]pyridin-1-one]
24 | < 100 | < 100 | 100 to 500 | CCN1Cc2c(ccnc2N[C@@H](C)c2cc(F)c(-c3cc(C(F)(F)F)cc(C)n3)cc2F)C1=O [Compound 122, (S)-4-((1-(2,5-difluoro-4-(6-methyl-4-(trifluoromethyl)pyridin-2-yl)phenyl)ethyl)amino)-2-ethyl-2,3-dihydro-1H-pyrrolo[3,4-c]pyridin-1-one]
